Experimental data from the NIST ThermoML archive (doi:10.1021/acs.jced.7b00520).

Experiments:
[1] = mn = molality of the nth substance listed, in mol/kg; settings: 101.3 kPa, Liquid; for viscosity: Capillary tube (Ostwald / Ubbelohde) method; for mass density: Vibrating tube method
[2] = 101.3 kPa, Liquid, Capillary tube (Ostwald / Ubbelohde) method

[Cl-].[Cl-].[Mg+2] [magnesium chloride] + O
[1]
Settings	mass density, m1 = 0.09999 [kg/m3]	mass density, m1 = 0.25 [kg/m3]	mass density, m1 = 0.5 [kg/m3]	mass density, m1 = 0.7499 [kg/m3]	mass density, m1 = 0.9999 [kg/m3]	viscosity, m1 = 0.0999 [mPa·s]	viscosity, m1 = 0.25 [mPa·s]	viscosity, m1 = 0.5 [mPa·s]	viscosity, m1 = 0.7499 [mPa·s]	viscosity, m1 = 0.9999 [mPa·s]
288.15 K	1006.87	1017.79	1034.95	1050.84	1065.46	1.21	1.25	1.355	1.445	1.534
298.15 K	1004.61	1015.32	1032.22	1048.21	1062.64	0.934	0.981	1.072	1.147	1.214
308.15 K	1001.62	1012.53	1029.55	1045.26	1059.4	0.751	0.794	0.862	0.934	1.01
318.15 K	997.848	1008.92	1026.01	1041.4	1055.25	0.624	0.659	0.715	0.762	0.814

O [water]
[2]
Settings	viscosity [mPa·s]
288.15 K	1.138
298.15 K	0.89
308.15 K	0.719
318.15 K	0.596
